These results are taken from PMC8217813, “Bridging Computational Vaccinology and Vaccine Development Through Systematic Identification, Characterization, and Downselection of Conserved and Variable Circumsporozoite Protein CD4 T Cell Epitopes From Diverse Plasmodium falciparum Strains” (Frontiers in Immunology, 2021).

Assay [1] concerns the target T1, HLA A*2402 (Homo sapiens, UniProt P04439, D101N/D140Y/D185E/E176V/E190D/F33S/G103R/G107R/I119L/I121M/I306V/K335N/L105A/L180Q/L300P/N151K/N90K/Q86E/Q94H/R106L/R138H/R89G/T104I/T345S/V100E/W191G/Y123F).
T1 construct: Pure Protein, LLC (ran the assay)
Briefly: In vitro class I HLA binding competition assay (fluorescence polarization). As to conditions: allele A2402; cell-free competition with fluorescently labeled control peptide, fluorescence polarization at 72 hours. As for the experimental part:
The cell-free class I HLA binding assay in use at Pure Protein, LLC allows for in vitro quantification of peptide-HLA binding affinity in a competition format. In this assay, a fluorescently labeled, high binding, control peptide is loaded onto 384-well ½-area plates along with unlabeled experimental peptides. To remove endogenous peptides and render the HLA A and B molecules receptive to binding, HLA is heated at 53°C for 15 minutes and immediately added to the assay. The mixture is then allowed to stand for three days. […] Binding of experimental peptides is expressed as the percent inhibition of the labeled control peptide (experimental fluorescence / control fluorescence, multiplied by 100). The percent inhibition values for each experimental peptide (across a range of molar concentrations) are used to calculate the concentration which inhibits 50% of the labeled control peptide’s specific binding. This value is referred to as the peptide’s IC50.

Assay [2] relates to CD4 T cells co-cultured with autologous DCs from PBMCs. It is filed as cell-based, human. As to conditions: positive = Stimulation Index ≥1.5-fold above baseline, 5 µg/mL peptide.
Assay [3] has as its target HLA-DRB1*0801 (Homo sapiens, UniProt P01903+P01911, A100R/A103L/A169T/D86S/F76Y/H45Y/I96F/K41T/L162R/M171V/P40S/Q125H/Q178H/Q39Y/Q99D/R218S/R42G/S66Y/V115G/W38E). The experiment in a line: In vitro class II HLA binding competition assay. The settings on record: competition with fluorescent-labeled reference peptide, class II HLA monomers, 24-hours, test peptide 100,000 nM to 100 nM, time-resolved fluorescence. The protocol: (§1) EpiVax conducted in vitro quantification of peptide-HLA binding affinity utilizing a competition assay format per the methodology described in ([35]). Briefly, a fluorescent-labeled, high-binding reference peptide and titrating concentrations of test peptide were incubated in a 96-well plate format with limiting concentrations of class II HLA monomers in aqueous buffer for 24-hours. Post incubation, the mixtures were moved to a 96-well plate coated with anti-HLA-DR antibody to capture HLA-peptide complexes. Time-resolved fluorescence measurement of the bound labeled reference peptide complex present in each mixture were detected with a europium-linked probe via fluorescent spectrophotometry using a SpectraMax M5 system. HLA binding affinity of each test peptide was expressed as the percent inhibition of reference peptide binding. Percent inhibition values (across the test peptide titration range) were used to calculate the half maximal inhibitory concentration (IC50) of each test peptide. For these studies, test peptides were assessed using a range of final concentrations from 100,000 nM to 100 nM and all peptides were reconstituted in dimethyl sulfoxide (DMSO).

The target in assay [4] is T2, HLA-DRB1*1101 (Homo sapiens, UniProt P01903+P01911, A100R/A169T/A87E/I96F/K41T/L162R/M171V/P40S/Q125H/Q178H/Q39Y/Q99D/R42S/S66Y/T262R/V115G/W38E).
T2 construct: purchased
The experiment in a line: In vitro class II HLA binding competition assay. The settings on record: competition with fluorescent-labeled reference peptide, class II HLA monomers, 24-hours, test peptide 100,000 nM to 100 nM, time-resolved fluorescence. The protocol: as §1

Assay [5] deals with T3, HLA-DRB1*0401 (Homo sapiens, UniProt P01903+P01911, A100K/A169T/F76Y/I96L/K127E/L162R/M171V/N62H/P40V/Q125Y/R42H/S133A/S149N/S66Y/V115G/V209L/W38E).
T3 construct: purchased
The experiment in a line: In vitro class II HLA binding competition assay. The protocol: as §1

The target of assay [6] is T4, HLA-DRB1*0101 (Homo sapiens, UniProt P01903+P01911, A100R/D57E/F55L/F60I/F76Y/I96L/L162R/M171V/P40L/Q125E/R42F/V115G/Y59C).
T4 construct: purchased
Briefly: In vitro class II HLA binding competition assay. As to conditions: competition with fluorescent-labeled reference peptide, class II HLA monomers, 24-hours, test peptide 100,000 nM to 100 nM, time-resolved fluorescence. As for the experimental part:
as §1

The target of assay [7] is HLA-DRB1*0701 (Homo sapiens, UniProt P01903+P01911, A100R/A102G/A103Q/D57E/D86V/E43K/F76Y/K127E/L162R/M171V/P40G/Q125H/Q99D/R33Q/R42Y/R54Q/S133A/S66F/T210M/V115G/Y107V/Y59L/Y89S). The experiment in a line: In vitro class II HLA binding competition assay. The protocol: as §1
Assay [8] has as its target HLA-DRB1*1301 (Homo sapiens, UniProt P01903+P01911, A100E/A169T/K41T/L162R/M171V/P40S/Q125H/Q178H/Q39Y/Q99D/R42S/S66N/T262R/W38E/Y61H). Briefly: In vitro class II HLA binding competition assay. The settings on record: competition with fluorescent-labeled reference peptide, class II HLA monomers, 24-hours, test peptide 100,000 nM to 100 nM, time-resolved fluorescence. As for the experimental part: as §1

Assay [9] has as its target T5, HLA-DRB1*1501 (Homo sapiens, UniProt P01903+P01911).
T5 construct: purchased
The experiment in a line: In vitro class II HLA binding competition assay. The protocol:
as §1

One may read the pIC50 as the IC50 on a negative log10 scale, so that one unit is a factor of ten. Higher therefore signals a small IC50.

SMILES strings stand for the structures. pIC50: −log10 of the molar value. Peptide text beside a SMILES is read from it.

Turning to `CC[C@H](C)[C@H](NC(=O)[C@H](CO)NC(=O)[C@H](CO)NC(=O)[C@H](CC(N)=O)NC(=O)[C@@H](NC(=O)[C@@H](NC(=O)[C@H](CC(N)=O)NC(=O)[C@H](Cc1ccccc1)NC(=O)[C@@H](N)C(C)C)C(C)C)C(C)C)C(=O)O` [Cluster 377_3D7] (H-VFNVVNSSI-OH), the pIC50 in [1] was 4.94.
Still for that read-out and setting: as for `CC[C@H](C)[C@H](NC(=O)[C@@H](N)CC(C)C)C(=O)N[C@@H](CCSC)C(=O)N[C@H](C(=O)N[C@@H](CC(C)C)C(=O)N[C@@H](CO)C(=O)N[C@@H](Cc1ccccc1)C(=O)N[C@@H](CC(C)C)C(=O)N[C@@H](Cc1ccccc1)C(=O)O)C(C)C` [Cluster 387_3D7] (H-LIMVLSFLF-OH), the figure is 4.71.
In the case of `CC[C@H](C)[C@H](NC(C)=O)C(=O)N[C@H](C(=O)N[C@@H](CCC(=O)O)C(=O)N[C@@H](Cc1ccc(O)cc1)C(=O)N[C@@H](CC(C)C)C(=O)N[C@@H](CCCCN)C(=O)N[C@@H](CCCCN)C(=O)N[C@H](C(=O)N[C@@H](CCC(N)=O)C(=O)N[C@@H](CC(N)=O)C(=O)N[C@@H](CO)C(=O)N[C@@H](CC(C)C)C(=O)N[C@@H](CO)C(=O)N[C@H](C(=O)N[C@@H](CCC(=O)O)C(=O)N[C@@H](Cc1c[nH]c2ccccc12)C(=O)N[C@@H](CO)C(=O)N1CCC[C@H]1C(=O)N[C@@H](CS)C(=O)N[C@@H](CO)C(N)=O)[C@@H](C)O)[C@@H](C)CC)[C@@H](C)O` [ICS2] (Ac-ITEYLKKIQNSLSTEWSPCS-NH2), in assay [2] (DR1 donors N=5, ICCS after 14-day co-culture), the “Percentage of donors demonstrating IFN-γ responses, DR1” value worked out at 40%. In assay [2] (DR1 donors N=5, ICCS), the “Percentage of donors demonstrating IL-2 responses, DR1” value was 40%; the “Percentage of donors demonstrating IL-4 responses, DR1” value came out at 0%; the “Percentage of donors demonstrating IL-10 responses, DR1” value was 0%; the “Percentage of donors demonstrating TNF-α responses, DR1” value was determined as 40%. Further, in [2] (DR3 donors N=6, ICCS after 14-day co-culture), the “Percentage of donors demonstrating IFN-γ responses, DR3” value came to 33%. In [2] (DR3 donors N=6, ICCS), the “Percentage of donors demonstrating IL-2 responses, DR3” value came out at 33%; the “Percentage of donors demonstrating IL-4 responses, DR3” value is 33%; the “Percentage of donors demonstrating IL-10 responses, DR3” value turned out to be 33%; the “Percentage of donors demonstrating TNF-α responses, DR3” value stood at 17%. Moreover, in assay [2] (DR4 donors N=10, ICCS after 14-day co-culture), the “Percentage of donors demonstrating IFN-γ responses, DR4” value is on record as 40%. Moreover, in assay [2] (DR4 donors N=10, ICCS), the “Percentage of donors demonstrating IL-2 responses, DR4” value was determined as 20%; the “Percentage of donors demonstrating IL-4 responses, DR4” value was 10%; the “Percentage of donors demonstrating IL-10 responses, DR4” value was 0%; the “Percentage of donors demonstrating TNF-α responses, DR4” value is 50%. Besides, in assay [2] (DR7 donors N=4, ICCS after 14-day co-culture), the “Percentage of donors demonstrating IFN-γ responses, DR7” value worked out at 50%. In assay [2] (DR7 donors N=4, ICCS), the “Percentage of donors demonstrating IL-2 responses, DR7” value was 0%; the “Percentage of donors demonstrating IL-4 responses, DR7” value worked out at 0%; the “Percentage of donors demonstrating IL-10 responses, DR7” value turned out to be 0%; the “Percentage of donors demonstrating TNF-α responses, DR7” value is 25%. Also, in assay [2] (DR8 donors N=4, ICCS after 14-day co-culture), the “Percentage of donors demonstrating IFN-γ responses, DR8” value amounted to 50%. In assay [2] (DR8 donors N=4, ICCS), the “Percentage of donors demonstrating IL-2 responses, DR8” value amounted to 25%; the “Percentage of donors demonstrating IL-4 responses, DR8” value worked out at 0%; the “Percentage of donors demonstrating IL-10 responses, DR8” value was found to be 25%; the “Percentage of donors demonstrating TNF-α responses, DR8” value is on record as 50%. For the same molecule, the “Percentage of donors demonstrating IFN-γ responses, DR9” value in assay [2] (DR9 donors N=4, ICCS after 14-day co-culture) was determined as 0%. Further, in [2] (DR9 donors N=4, ICCS), the “Percentage of donors demonstrating IL-2 responses, DR9” value is listed as 25%; the “Percentage of donors demonstrating IL-4 responses, DR9” value turned out to be 0%; the “Percentage of donors demonstrating IL-10 responses, DR9” value is recorded as 0%; the “Percentage of donors demonstrating TNF-α responses, DR9” value was determined as 25%. The “Percentage of donors demonstrating IFN-γ responses, DR11” value in assay [2] (DR11 donors N=4, ICCS after 14-day co-culture) is reported as 25%. Also, in assay [2] (DR11 donors N=4, ICCS), the “Percentage of donors demonstrating IL-2 responses, DR11” value is on record as 25%; the “Percentage of donors demonstrating IL-4 responses, DR11” value stood at 0%; the “Percentage of donors demonstrating IL-10 responses, DR11” value was 0%; the “Percentage of donors demonstrating TNF-α responses, DR11” value is given as 50%. Besides, the “Percentage of donors demonstrating IFN-γ responses, DR13” value in [2] (DR13 donors N=7, ICCS after 14-day co-culture) is recorded as 57%. In addition, in [2] (DR13 donors N=7, ICCS), the “Percentage of donors demonstrating IL-2 responses, DR13” value was determined as 29%; the “Percentage of donors demonstrating IL-4 responses, DR13” value was 14%; the “Percentage of donors demonstrating IL-10 responses, DR13” value was 29%; the “Percentage of donors demonstrating TNF-α responses, DR13” value was found to be 71%. Further, the “Percentage of donors demonstrating IFN-γ responses, DR15” value in assay [2] (DR15 donors N=7, ICCS after 14-day co-culture) came out at 43%. Moreover, in [2] (DR15 donors N=7, ICCS), the “Percentage of donors demonstrating IL-2 responses, DR15” value is 14%; the “Percentage of donors demonstrating IL-4 responses, DR15” value was determined as 0%; the “Percentage of donors demonstrating IL-10 responses, DR15” value is reported as 14%; the “Percentage of donors demonstrating TNF-α responses, DR15” value is on record as 29%. Also, the pIC50 in assay [3] was 5.32. Further, the pIC50 in assay [4] is 4.36. In [5], this molecule had a pIC50 of 6.42. Further, the pIC50 in assay [6] was 4.08. Moreover, the pIC50 in [7] was 4.70. In assay [8], this molecule had a pIC50 of 4.14. Besides, the pIC50 in assay [9] was 5.07.
